# Experimental data from patent publication US12357711B2, “PSMA binding dual mode radiotracer and therapeutic” (Technische Universität München, priority 2019, dated 2025).
# Values joined by “and” are separate entries in the source; they are usually repeats but may differ in a detail not shown here. Equal values may be shown once. Read-outs that look alike come from different tables or passages of the source.
# Columns and labels:
# human serum albumin [1] = biological target: T1, human serum albumin (Homo sapiens, UniProt P02768); test: HSA binding on Chiralpak HSA column; type: in vitro ADME; details: for Log K HSA: reference substances for calibration of the HSA-column; for HSA Binding: Chiralpak HSA column (50 × 3 mm, 5 μm)
# T1 construct: purchased H13H-2433
# T1 sequence (P02768 25-609): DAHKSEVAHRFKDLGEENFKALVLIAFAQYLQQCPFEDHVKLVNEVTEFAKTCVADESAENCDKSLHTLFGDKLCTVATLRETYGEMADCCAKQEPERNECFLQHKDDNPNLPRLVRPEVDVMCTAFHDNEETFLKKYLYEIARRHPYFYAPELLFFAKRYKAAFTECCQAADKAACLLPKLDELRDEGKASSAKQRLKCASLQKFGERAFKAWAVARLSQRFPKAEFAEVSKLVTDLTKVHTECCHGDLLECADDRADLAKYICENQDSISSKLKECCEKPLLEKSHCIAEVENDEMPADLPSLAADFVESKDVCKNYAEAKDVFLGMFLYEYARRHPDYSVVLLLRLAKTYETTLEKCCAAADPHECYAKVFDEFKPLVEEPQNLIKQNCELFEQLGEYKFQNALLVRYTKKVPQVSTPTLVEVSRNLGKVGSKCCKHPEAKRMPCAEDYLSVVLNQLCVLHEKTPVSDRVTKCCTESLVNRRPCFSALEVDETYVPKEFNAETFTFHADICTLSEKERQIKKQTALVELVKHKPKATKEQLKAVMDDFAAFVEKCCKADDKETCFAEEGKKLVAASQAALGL
# human serum albumin [2] = biological target: T1, human serum albumin; details: reference substances for calibration of the HSA-column; cited from earlier work
# [3] = Octanol-water partition coefficient (n-octanol/PBS pH 7.4); type: physicochemical; details: for log P: octanol/PBS7.4, (n = 6)
# Protocol: Approximately 1 MBq of the labeled tracer was dissolved in 1 mL of a 1:1 mixture (by volumes) of phosphate buffered saline (PBS, pH 7.4) and n-octanol in an Eppendorf tube. After vigorous mixing of the suspension for 3 minutes at room temperature, the vial was centrifuged at 15000 g for 3 minutes (Biofuge 15, Heraus Sepatech, Osterode, Germany) and 100 μL aliquots of both layers were measured in a gamma counter. The experiment was repeated at least six times.
# Determianation of the IogP values was carried out in phosphate buffered saline (PBS, pH 7.4) and n-octanol (=logPoct/PBS).
# PSMA = biological target: T2, PSMA (Homo sapiens, UniProt Q04609); test: Determination of IC50: PSMA affinity, competitive binding on LNCaP cells against ([125I]I-BA)KuE
# T2 construct: endogenous in cells; host or cells: LNCaP cells
# T2 sequence (Q04609 whole entry): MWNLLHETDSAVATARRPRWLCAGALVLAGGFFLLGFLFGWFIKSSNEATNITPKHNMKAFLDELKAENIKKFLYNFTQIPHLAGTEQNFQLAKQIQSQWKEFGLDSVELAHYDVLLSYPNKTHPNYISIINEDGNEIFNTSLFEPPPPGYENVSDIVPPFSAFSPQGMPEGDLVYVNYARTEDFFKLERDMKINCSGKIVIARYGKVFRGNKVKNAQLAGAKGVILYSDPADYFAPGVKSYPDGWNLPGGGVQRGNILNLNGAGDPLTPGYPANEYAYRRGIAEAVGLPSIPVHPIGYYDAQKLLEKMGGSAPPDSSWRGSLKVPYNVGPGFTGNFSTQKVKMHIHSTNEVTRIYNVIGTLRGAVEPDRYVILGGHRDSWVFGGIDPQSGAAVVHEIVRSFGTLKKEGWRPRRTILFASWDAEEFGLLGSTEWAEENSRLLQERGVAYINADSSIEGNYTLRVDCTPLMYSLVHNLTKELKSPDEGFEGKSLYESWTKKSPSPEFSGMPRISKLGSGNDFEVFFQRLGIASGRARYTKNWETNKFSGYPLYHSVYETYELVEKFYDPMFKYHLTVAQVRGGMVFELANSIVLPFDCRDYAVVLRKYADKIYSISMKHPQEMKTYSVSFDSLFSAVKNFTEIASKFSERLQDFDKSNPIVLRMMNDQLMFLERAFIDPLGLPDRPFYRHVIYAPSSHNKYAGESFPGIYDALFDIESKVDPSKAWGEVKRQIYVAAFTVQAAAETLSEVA
# Protocol: Data are expressed as mean±SD (n=3, in 3 different experiments).
# After removal of the culture medium, the cells were treated once with 500 μL of HBSS (Hank's balanced salt solution, Biochrom, Berlin, Germany, with addition of 1% bovine serum albumin (BSA)) and left 15 min on ice for equilibration in 200 μL HBSS (1% BSA). […] Quantification of bound and free radioligand was accomplished in a γ-counter.
# [4] = test system: PSMA-positive LNCaP cells; test: Internalization in LNCaP cells, normalized to ([125I]I-BA)KuE; type: cell-based; details: for individual internalization rates / internalization rate Mean: LNCaP cells, 1 hour, 37° C.; for individual internalization rates: c=0.5 nM, single measurements
# Protocol: Data is corrected for non-specific binding ([…]) and expressed as mean±SD (n=3).
# Subsequent to the removal of the culture medium, the cells were washed once with 500 μL DMEM-F12 (5% BSA) and left to equilibrate for at least 15 min at 37° C. in 200 μL DMEM-F12 (5% BSA). Each well was treated with either 25 μL of either DMEM-F12 (5% BSA) or a 100 μM PMPA solution for blockade. Next, 25 μL of the ^68Ga/^18F-labeled PSMA inhibitor (5.0 nM) was added and the cells incubated at 37° C. for 60 min. The experiment was terminated by placing the 24-well plate on ice for 3 min and consecutive removal of the medium. Each well was rinsed with 250 μL HBSS and the fractions from these first two steps combined, representing the amount of free radioligand. Removal of surface bound activity was accomplished by incubation of the cells with 250 μL of ice-cold PMPA (10 μM in PBS) solution for 5 min and rinsed again with another 250 μL of ice-cold PBS. The internalized activity was determined by incubation of the cells in 250 μL 1 M NaOH and the combination with the fraction of a subsequent wash step with 250 μL 1.0 M NaOH. Each experiment (control and blockade) was performed in triplicate. Free, surface bound and internalized activity was quantified in a γ-counter. […] Data were corrected for non-specific internalization and normalized to the specific-internalization observed for the radioiodinated reference compound.
# [5] = test system: LNCaP tumor-bearing SCID mice; test: Biodistribution at 1 h p.i.; type: in vivo; details: for Biodistribution tumor: LNCaP tumor
# Protocol: FIG. 10: Biodistribution (in % ID/g) of ^18E-labeled rhPSMA tracers at 1 h p.i in LNCaP tumor-bearing SCID mice. Data are expressed as mean±SD (n=4 for rhPSMA7.1, n=5 for 7.2, n=4 for 7.3, n=5 for 7.4 and n=3 for 7-rac).
# [6] = test system: LNCaP tumor-bearing SCID mice; test: Biodistribution at 1 h p.i. with competition (co-injected PMPA); type: in vivo; details: co-injected with PMPA (8 mg/kg); for Biodistribution tumor: LNCaP tumor
# Protocol: FIG. 11: Biodistribution [% ID/g] of ^18F-rhPSMAs co-injected with PMPA (8 mg/kg) at 1 h p.i in LNCaP tumor-bearing SCID mice. Data are expressed as mean±SD (n=3).
# [7] = Wängler et al. 2010; cited from earlier work
# [8] = LNCaP cells, [125I]IB-KuE c=0.2 nM, 1 h, 4° C., HBSS+1% BSA, single measurements, read-out: individual IC50 measurements
# [9] = LNCaP cells, [125I]IB-KuE c=0.2 nM, 1 h, 4° C., mean of individual measurements, read-out: IC50 Mean
compound,measurement,setting,value
Nc1ccccc1 [Aniline],Log K HSA,human serum albumin [1],−0.79
same,Lit. HSA % (literature value of human serum albumin binding),human serum albumin [2],14.06%
O=C(O)c1ccccc1 [Benzoic Acid],Lit. HSA % (literature value of human serum albumin binding),human serum albumin [2],34.27%
"O=C(O)CC[C@H](NC(=O)N[C@@H](CCCCNC(=O)c1ccc(F)nc1)C(=O)O)C(=O)O [DCFPyL, reference compound]",logP,[3]; pH 7.4,-3.4
same,HSA Binding,human serum albumin [1],14.3%
COc1ccc(Cl)cc1C(=O)NCCc1ccc(S(=O)(=O)NC(=O)NC2CCCCC2)cc1 [Glibenclamide],Log K HSA,human serum albumin [1],1.69
same,Lit. HSA % (literature value of human serum albumin binding),human serum albumin [2],99.00%
Oc1ccccc1 [Phenol],Log K HSA,human serum albumin [1],−0.59
same,Lit. HSA % (literature value of human serum albumin binding),human serum albumin [2],20.69%
CCCN(CCC)S(=O)(=O)c1ccc(C(=O)O)cc1 [Probenecid],Lit. HSA % (literature value of human serum albumin binding),human serum albumin [2],95.00%
"CC(C)(C)[Si](F)(c1ccc(C(=O)NC[C@H](NC(=O)CC[C@H](C(=O)O)N2CCN(CC(=O)[O-])CCN(CC(=O)[O-])CCN(CC(=O)[O-])CC2)C(=O)N[C@H](CCCCNC(=O)CCC(=O)NCCC[C@@H](NC(=O)CC[C@H](NC(=O)N[C@@H](CCC(=O)O)C(=O)O)C(=O)O)C(=O)O)C(=O)O)cc1)C(C)(C)C.[Ga+3] [rhPSMA7.2, [^19F][^natGa]L-Dap-R-DOTAGA-rhPSMA7]",IC50,PSMA; [8],2.64 nM and 2.76 nM and 3.94 nM and 5.8 nM and 4.31 nM and 4.32 nM and 3.17 nM and 2.97 nM and 3.36 nM
same,IC50,PSMA; [9],3.7 nM
same,individual internalization rates,[4],192.3 % of [^125I]IB-KuE and 188.7 % of [^125I]IB-KuE and 182.7 % of [^125I]IB-KuE and 169.5 % of [^125I]IB-KuE and 205.3 % of [^125I]IB-KuE and 212.6 % of [^125I]IB-KuE
same,internalization rate Mean,[4],191.83 % of [^125I]IB-KuE
same,log P,[3],−3.13 ± 0.22
same,log P Mean,"[3]; octanol/PBS7.4, mean of individual measurements",−3.13
same,individual log P measurements,"[3]; octanol/PBS7.4, single measurements",−3.03 and −2.96 and −2.94 and −2.89 and −3.02 and −3.06 and −2.99 and −3.14 and −3.40 and −3.50 and −3.45 and −3.53 and −3.48 and −3.00 and −3.01
same,HSA Binding,human serum albumin [1],97.8%
same,Biodistribution adrenals,[5],1.3 ± 0.8 % ID/g
same,Biodistribution blood,[5],0.56 ± 0.20 % ID/g
same,Biodistribution bone,[5],0.31 ± 0.24 % ID/g
same,Biodistribution heart,[5],0.32 ± 0.13 % ID/g
same,Biodistribution intestine,[5],0.18 ± 0.07 % ID/g
same,Biodistribution kidneys,[5],87.6 ± 28.8 % ID/g
same,Biodistribution liver,[5],0.35 ± 0.08 % ID/g
same,Biodistribution lung,[5],0.89 ± 0.38 % ID/g
same,Biodistribution muscle,[5],0.13 ± 0.07 % ID/g
same,Biodistribution pancreas,[5],0.21 ± 0.08 % ID/g
same,Biodistribution spleen,[5],10.1 ± 6.3 % ID/g
same,Biodistribution stomach,[5],0.19 ± 0.08 % ID/g
same,Biodistribution tumor,[5],6.5 ± 2.3 % ID/g
same,Biodistribution adrenals,[6],0.07 ± 0.10 % ID/g
same,Biodistribution blood,[6],1.1 ± 0.31 % ID/g
same,Biodistribution bone,[6],0.57 ± 0.39 % ID/g
same,Biodistribution heart,[6],0.47 ± 0.09 % ID/g
same,Biodistribution intestine,[6],0.33 ± 0.10 % ID/g
same,Biodistribution kidneys,[6],10.9 ± 1.0 % ID/g
same,Biodistribution liver,[6],0.46 ± 0.07 % ID/g
same,Biodistribution lung,[6],1.1 ± 0.32 % ID/g
same,Biodistribution muscle,[6],0.09 ± 0.03 % ID/g
same,Biodistribution pancreas,[6],0.12 ± 0.05 % ID/g
same,Biodistribution spleen,[6],0.26 ± 0.07 % ID/g
same,Biodistribution stomach,[6],0.21 ± 0.06 % ID/g
same,Biodistribution tumor,[6],1.0 ± 0.13 % ID/g
PSMA-1007 [reference compound],IC50,"PSMA; identical binding assay, carried out in our lab (Robu et al. 2018), read-out: IC50 of other selected PSMA inhibitors",4.2 ± 0.5 nM
same,internalization of other selected PSMA inhibitors,"[4]; identical assay, carried out in our lab (Robu et al. 2018)",118 ± 4 % of [^125I]IB-KuE
same,log P,[3],−1.6
same,HSA Binding,human serum albumin [1],97.8%
SIFA-Asn(AcNH-β-Glc)-PEG-Tyr^3-octreotate,log P(ow),[7],0.96
SIFA-Asn(AcNH-β-Glc)-Tyr^3-octreotate,log P(ow),[7],1.23
[^19F][^natGa]L-Dap-S-DOTAGA-rhPSMA7 [rhPSMA7.4],IC50,PSMA; [8],3.4 nM and 3.56 nM and 2.79 nM and 4.57 nM and 3.78 nM
same,IC50,PSMA; [9],3.62 nM
same,individual internalization rates,[4],209.6 % of [^125I]IB-KuE and 202.6 % of [^125I]IB-KuE and 209.8 % of [^125I]IB-KuE
same,internalization rate Mean,[4],207.33±4.06 % of [^125I]IB-KuE and 207.33 % of [^125I]IB-KuE
same,HSA Binding,human serum albumin [1],96.6%
same,Biodistribution adrenals,[5],3.57 ± 2.38 % ID/g
same,Biodistribution blood,[5],1.15 ± 0.30 % ID/g
same,Biodistribution bone,[5],0.62 ± 0.30 % ID/g
same,Biodistribution heart,[5],0.71 ± 0.26 % ID/g
same,Biodistribution intestine,[5],0.37 ± 0.09 % ID/g
same,Biodistribution kidneys,[5],153 ± 80.3 % ID/g
same,Biodistribution liver,[5],0.69 ± 0.20 % ID/g
same,Biodistribution lung,[5],1.59 ± 0.61 % ID/g
same,Biodistribution muscle,[5],0.31 ± 0.08 % ID/g
same,Biodistribution pancreas,[5],0.50 ± 0.30 % ID/g
same,Biodistribution spleen,[5],18.4 ± 9.77 % ID/g
same,Biodistribution stomach,[5],0.25 ± 0.06 % ID/g
same,Biodistribution tumor,[5],18.9 ± 3.27 % ID/g
same,Biodistribution adrenals,[6],0.03 ± 0.04 % ID/g
same,Biodistribution blood,[6],0.82 ± 0.17 % ID/g
same,Biodistribution bone,[6],1.0 ± 0.8 % ID/g
same,Biodistribution heart,[6],0.37 ± 0.05 % ID/g
same,Biodistribution intestine,[6],0.36 ± 0.08 % ID/g
same,Biodistribution kidneys,[6],7.2 ± 2.4 % ID/g
same,Biodistribution liver,[6],0.48 ± 0.14 % ID/g
same,Biodistribution lung,[6],0.74 ± 0.14 % ID/g
same,Biodistribution muscle,[6],0.20 ± 0.05 % ID/g
same,Biodistribution pancreas,[6],0.18 ± 0.09 % ID/g
same,Biodistribution spleen,[6],0.28 ± 0.15 % ID/g
same,Biodistribution stomach,[6],0.20 ± 0.07 % ID/g
same,Biodistribution tumor,[6],0.99 ± 0.19 % ID/g
